From patent publication US20150126467A1, “USE OF ALGINATE OLIGOMERS TO ENHANCE THE EFFECTS OF ANTIFUNGAL AGENTS” (AlgiIPharma AS, priority 2011, published 2015) come the findings set out here.

The test system of experiment [1] is C. krusei 141/03 (candidosis). The experiment can be described thus: Robotic MIC assay, Candida strains (Example 2). In kind it is cell-based. The settings on record: Pichia kudriavzevii, 48 h, Mueller-Hinton broth, read-out: Minimum Inhibitory Concentration (MIC). The procedure, abridged:
(§1)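 Broth microdilution in Mueller-Hinton broth: two-fold serial dilutions of each antifungal with 0, 2, 6 or 10% OligoG CF-5/20 G-fragments, four parallel wells, static incubation at 34° C. OD600 gave growth relative to antifungal-free references; MIC (μg ml-1) read after 48 h.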

Experiment [2] deals with C. tropicalis T2.2 (oral). Put plainly: Robotic MIC assay, Candida strains (Example 2). In kind it is cell-based. To be noted: Candida tropicalis, 48 h, Mueller-Hinton broth, read-out: Minimum Inhibitory Concentration (MIC). The procedure, abridged: as §1
Experiment [3] deals with C. parapsillosis ATCC 22019T. Put plainly: Standard MIC testing in RPMI medium (Example 3). To be noted: Lodderomyces parapsilosis, ATCC2019, 48 h, C. Parapsillosis ATCC 2019^T, read-out: Minimum Inhibitory Concentration (MIC). In kind it is cell-based, Candida parapsilosis.
Protocol: (§2) Following retrieval from −80° C. storage, fungal colonies were grown on blood agar with 5% sheep blood and were used to inoculate tryptone soya broth (TSB) for overnight growth. […] Fungal cultures at 0.5 McFarland standard were diluted ten-fold in RPMI medium and 5 μl added to the media containing wells of the microtiter plates. Plates were wrapped in parafilm and incubated at 34° C. for 48 hours. MIC values were determined as the lowest concentration at which there was no visible growth.
In experiment [4] the test system is C. krusei 249/03(2) (ulceration). Put plainly: Standard MIC testing in RPMI medium (Example 3). To be noted: 48 h. In kind it is cell-based, Candida krusei.
Protocol: as §2
The test system of experiment [5] is C. lusitaniae 994/01(2) (candidosis). The experiment can be described thus: Standard MIC testing in RPMI medium (Example 3). In kind it is cell-based, Candida lusitaniae. The settings on record: 48 h.
Protocol: as §2

Converted amounts (≈) assume the structure as drawn. Read-outs that look alike come from different tables or passages of the source.

For `OC(Cn1cncn1)(Cn1cncn1)c1ccc(F)cc1F` [Fluconazole, fluconazole], the MIC was 128 µg/mL (≈ 418 µM) in experiment [1] (0% OligoG); 64 µg/mL (≈ 209 µM) in experiment [1] (2% OligoG); 64 µg/mL (≈ 209 µM) in experiment [1] (6% OligoG); 64 µg/mL (≈ 209 µM) in experiment [1] (10% OligoG); over 128 µg/mL in experiment [2] (0% OligoG); 0.5 µg/mL (≈ 1.63 µM) in experiment [2] (2% OligoG). The MIC in experiment [2] (6% OligoG) was 0.25 µg/mL (≈ 0.816 µM); in experiment [2] (10% OligoG), under 0.125 µg/mL; in experiment [3] (0% OligoG), 2 µg/mL (≈ 6.53 µM); in experiment [3] (2% OligoG), 2 µg/mL (≈ 6.53 µM); in experiment [3] (6% OligoG), 2 µg/mL (≈ 6.53 µM); in experiment [3] (10% OligoG), 1 µg/mL (≈ 3.27 µM). For the same molecule, the MIC in experiment [4] (Pichia kudriavzevii, 2% OligoG, read-out: Minimum Inhibitory Concentration (MIC)) worked out at 4 µg/mL (≈ 13.1 µM); in experiment [5] (Clavispora lusitaniae, 2% OligoG, read-out: Minimum Inhibitory Concentration (MIC)) it was 2 µg/mL (≈ 6.53 µM). In addition, the “Minimum Inhibitory Concentration (MIC)” value in experiment [4] (0% OligoG) was 4 µg/mL; in experiment [4] (6% OligoG), 4 µg/mL; in experiment [4] (10% OligoG) it was 4 µg/mL; in experiment [5] (0% OligoG), 2 µg/mL; in experiment [5] (6% OligoG), 2 µg/mL; in experiment [5] (10% OligoG), 2 µg/mL.
